Test results published in patent publication US20120028837A1, “RAPID SCREEN FOR REPRODUCTIVE TOXICANTS” (PRESIDENT AND FELLOWS OF HARVARD COLLEGE, priority 2010, published 2012).

Columns and labels:
xol-1::GFP, nx3 worms = assay: Lethality, chemical sensitivity of xol-1::GFP, nx3 cuticle mutant strain; format: in vivo, C. elegans; conditions: four days
Procedure: (§1) The sensitivity of the xol-1::GFP, nx3 strain compared to the xol-1::GFP strain was assayed by exposing 25 worms for four days (from eggs to adulthood) to a range of concentration of Bisphenol A: 100 μM, 500 μM and 1 mM. The nx3 cuticle mutation was expected to confer increased sensitivity to BPA.

xol-1::GFP worms = assay: Lethality, chemical sensitivity of xol-1::GFP strain; format: in vivo, C. elegans; conditions: 100 μM, 500 μM and 1 mM, four days from eggs to adulthood, 25 worms
Procedure: as §1

[1] = test system: C. elegans diakinesis oocytes; assay: Diakinesis oocyte analysis (chromosome condensation, SYP-1, AIR-2, pH3); conditions: for -1 oocytes showing lack of condensation: BPA
Excerpt: Proper processing of recombination events is coupled with the formation of mature bivalents during the diakinesis stage such that in mutants where recombination intermediate processing is impaired, bivalent maturation is delayed.
Associated with the changes in chromatin morphology, the SC is disassembled during late diakinesis in a tightly controlled fashion. Accordingly, SC components, such as SYP-1, are detectable on the short arms of the bivalent in the −3 oocyte but are essentially absent from the bivalents of −2 and −1 oocytes. Thus, whether a delay in chromosome remodeling could correlate with an incomplete disassembly of SC components in late diakinesis was examined.
Accurate chromosome segregation at meiosis I is characterized by the carefully orchestrated loss of cohesion between homologs coupled with retention of cohesion between sister chromatids. This regulated process involves the targeting of the Aurora-B kinase AIR-2, a member of the chromosomal passenger complex, to the short arm of the bivalents in the −1 oocyte which has been proposed to lead to the removal the meiosis-specific cohesin REC-8 from the short arms of the bivalent. To examine whether these key steps in late meiotic prophase I might be impaired in BPA treated gonads, the localization of AIR-2 in the −1 oocytes was examined. […] Phospho histone H3 (pH3) is a canonical substrate for the activity of AIR-2 [59] and accordingly, although it accumulates in the −3 to −1 oocytes, it is only detected on the short arms of the bivalent in the −1 oocyte in the presence of AIR-2 [56, 57].
BPA bears endocrine disrupting activity in many developmental contexts including gonadal, brain and mammary gland development. BPA has affinity for multiple members of the estrogen receptors family, in particular BPA binds to the human estrogen receptor alpha (ERα) and ERβ as well as estrogen-related receptor gamma (ERR-γ) and in C. elegans with nuclear hormone receptor NHR-14 which also binds estrogen. […] Two hallmarks of exposure to BPA were examined, the decrease in the size of the proliferative zone and the condensation defects observed at diakinesis, as they are both highly penetrant and consistent phenotypes. […] Similarly to the experiments described above, the size of the mitotic zone was quantified as well as condensation defects at diakinesis.
Antibody Staining. DAN staining, immunostaining and analysis of stained meiotic nuclei were performed as in [25] except for ATL-1 and AIR-2 antibodies were dissected gonads were subjected to a 1% fixation method as described in [27]. Antibodies were used at the following dilutions: rabbit α-SYP-1 (1:100), mouse α-RAD-51 (1:100), rabbit α-HTP-3 (1:500), guinea pig α-HIM-8 (1:100), rabbit α-ATL-1 (1:50), rabbit α-AIR-2 (1:100) and rabbit α-pCHK-1 (1:100). The secondary antibodies used were: Cy3 anti-rabbit, FITC anti-guinea-pig and FITC anti-mouse (Jackson Immunochemicals), each at 1:100, Stacks of 0.2 μm slices were captured using a Leica microscope, coupled to the DeltaVision fluorescence microscope system (Applied Precision). The images were projections approximately halfway through 3D data stacks of whole nuclei, except for diakinesis images which encompass entire nuclei.

C. elegans germline = assay: Synaptonemal complex and chromatin integrity in transition zone and pachytene (HTP-3, SYP-1, HIM-8, DAPI); format: in vivo
Excerpt: To examine meiotic chromosome synapsis in C. elegans following BPA exposure, assembly of the synaptonemal complex was examined by assessing the localization of the axial element protein HTP-3 (a paralogue of the axial component HIM-3 required for proper synapsis and pairing of homologous chromosomes) and the central region protein SYP-1 [45], as the nuclei enter meiosis. As nuclei exit mitosis and progress into meiosis in wild type germlines, HTP-3 and SYP-1 are assembled onto the chromatin as foci and short tracks which increase in length through the transition zone. By pachytene, the polymerization of the SC is completed and both proteins form fully elongated tracks spanning the entire length of the homologous chromosomes. Following exposure to BPA, the kinetics and extent of assembly of HTP-3 and SYP-1 onto the chromatin during transition zone were not affected when compared to control (n=10 gonads).
These abnormal nuclei were not simply apoptotic nuclei as they were not specifically found near the bend of the gonad, where germline nuclei were cleared by apoptosis but instead could be found throughout pachytene. As disruption of the integrity of the SC could lead to a separation of the homologous chromosomes, the localization of the X specific pairing center component HIM-8 was examined. In C. elegans, specific loci, termed pairing centers, on chromosomes allow for the physical interaction between homologous pairs. HIM-8 along with other pairing center components associate with the pairing centers and the nuclear envelope and mediate homologous pairing.

CC(C)(c1ccc(O)cc1)c1ccc(O)cc1 [BPA, Bisphenol A]
lethality (xol-1::GFP, nx3 worms; 100 μM): 0% | lethality (xol-1::GFP, nx3 worms; 500 μM): 96% | lethality (xol-1::GFP, nx3 worms; 1 Mm): 100% | lethality (xol-1::GFP worms): 0% | gonads with SYP-1 staining on short arm of bivalent in the -1 oocyte ([1]; BPA exposed gonads): 10% | -1 oocytes with pH3 staining localized to the bivalents ([1]; BPA treated): 14% | gonads in which AIR-2 was not detected on the bivalents of -1 oocytes ([1]; BPA treated gonads): 100% | gonads in which the -1 oocyte did not show normal chromosome condensation ([1]; BPA treated gonads): 23% | gonads with residual SYP-1 staining on short arm of bivalent in the -2 oocyte ([1]; BPA treated gonads): 80% | kinetics of pH3 nuclear accumulation in diakinesis oocytes ([1]; BPA treated oocytes): delay in the kinetics of pH3 nuclear accumulation | -1 oocytes showing lack of condensation ([1]; one day post-L4): 17% | -1 oocytes showing lack of condensation ([1]; three days post-L4): 28% | -1 oocytes showing lack of condensation ([1]; two days post-L4): 24% | delay in bivalent maturation judged by nuclear morphology ([1]; all BPA gonads examined, from -1, -2 or -3 oocyte): some level of delay in bivalent maturation | pachytene nuclei with DAPI stained bodies or fragments (C. elegans germline; BPA exposure): about 10% | kinetics and extent of assembly of HTP-3 and SYP-1 onto chromatin during transition zone (C. elegans germline; BPA exposure vs control): not affected | HIM-8 foci per nucleus throughout pachytene (C. elegans germline; BPA treated worms): 1 focus per nucleus | chromosome synapsis in pachytene nuclei (SYP-1 staining) (C. elegans germline; BPA treated worms): defects in chromosome synapsis
